In the NIST ThermoML archive (doi:10.1016/j.fluid.2016.08.041) one finds mass density and refractive index data, which are given here for 6 compounds.

The conditions of data set [1]: 298.2 K; 101.33 kPa; Liquid; Vibrating tube method.
A short description of data set [2]: refractive index (Na D-line) (dimensionless). To be noted: 298.2 K; 101.33 kPa; Liquid; Standard Abbe refractometry.

± gives the expanded uncertainty stated by the source.

A word on the mass density: it is the mass of a sample divided by its volume. One may read the refractive index as the speed of light in vacuum divided by its phase velocity in the sample. Turning to `CCCCC(=O)OCC` [ethyl pentanoate], the mass density in data set [1] came to 872.36 ± 0.36 kg/m3. In addition, the refractive index in data set [2] came to 1.39841 ± 0.00042.
In the case of `CCOC(=O)CCCCCCCCC(=O)OCC` [diethyl decanedioate], in data set [1], the mass density turned out to be 959.18 ± 0.37 kg/m3. For the same compound, in data set [2], the refractive index worked out at 1.43485 ± 0.00042.
The matching figures for `CC(C)CCO` [3-methylbutan-1-ol]: 807.16 ± 0.35 kg/m3 and 1.40528 ± 0.00042.
The matching figures for `O=CO` [formic acid]: 1214.1 ± 0.51 kg/m3 and 1.36939 ± 0.00042.
As to `CCOC(=O)CCC(=O)OCC` [diethyl butanedioate], the mass density in data set [1] is listed as 1035.34 ± 0.4 kg/m3. Also, in data set [2], the refractive index is on record as 1.41967 ± 0.00042.
Regarding `CCCCCCCC(=O)OCC` [ethyl octanoate], the mass density in data set [1] worked out at 862.23 ± 0.36 kg/m3. Also, in data set [2], the refractive index is reported as 1.41572 ± 0.00042.
